pIC50, pKd: −log10 of the molar value. Converted amounts (≈) assume the structure as drawn.

As a reminder, the pKd is −log10 of the Kd, conventionally taken in molar units. High values mean a small Kd, low ones a large Kd. What is called pIC50 is −log10 of the IC50, conventionally taken in molar units. The term solubility denotes the concentration that dissolves in the medium under given conditions.

The test system of one data set is Salmonella typhimurium. In words: Genotoxicity in Salmonella typhimurium TA98 in absence of aroclor-1254-induced rat S9 fraction by Ames test. The following applies: salmonella enterica subsp. enterica serovar typhimurium. Type of data set: toxicity, organism-based.
For another data set, the target named is T1, Vitamin D3 receptor (Homo sapiens, UniProt P11473).
T1 sequence (P11473 whole entry): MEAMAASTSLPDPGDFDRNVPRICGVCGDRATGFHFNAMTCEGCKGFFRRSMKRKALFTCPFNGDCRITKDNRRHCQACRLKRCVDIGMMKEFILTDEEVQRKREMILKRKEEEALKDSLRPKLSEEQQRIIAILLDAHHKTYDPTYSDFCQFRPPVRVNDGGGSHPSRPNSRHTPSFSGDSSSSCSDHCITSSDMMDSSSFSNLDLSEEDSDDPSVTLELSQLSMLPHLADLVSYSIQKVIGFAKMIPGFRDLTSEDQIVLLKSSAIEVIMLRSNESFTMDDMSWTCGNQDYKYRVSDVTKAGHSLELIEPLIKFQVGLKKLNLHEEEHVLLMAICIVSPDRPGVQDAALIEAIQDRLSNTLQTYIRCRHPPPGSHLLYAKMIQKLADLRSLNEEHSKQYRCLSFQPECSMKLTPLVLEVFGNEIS

In data set [1] the test system is TK6. Briefly: Genotoxicity in human-derived p53-competent TK6 cells expressing GADD45a-dependent green fluorescent protein assessed as decrease in cell viability after 48 hrs in presence of Sprague-Dawley rat S9 fraction by FACS analysis. Type of data set: toxicity, cell-based. The note with it: s9, 48 h. A general note: In flow cytometry, cells or beads pass a laser one at a time.

Data set [2] concerns the target T2, Nuclear receptor ROR-alpha (Homo sapiens, UniProt P35398).
T2 sequence (P35398 whole entry): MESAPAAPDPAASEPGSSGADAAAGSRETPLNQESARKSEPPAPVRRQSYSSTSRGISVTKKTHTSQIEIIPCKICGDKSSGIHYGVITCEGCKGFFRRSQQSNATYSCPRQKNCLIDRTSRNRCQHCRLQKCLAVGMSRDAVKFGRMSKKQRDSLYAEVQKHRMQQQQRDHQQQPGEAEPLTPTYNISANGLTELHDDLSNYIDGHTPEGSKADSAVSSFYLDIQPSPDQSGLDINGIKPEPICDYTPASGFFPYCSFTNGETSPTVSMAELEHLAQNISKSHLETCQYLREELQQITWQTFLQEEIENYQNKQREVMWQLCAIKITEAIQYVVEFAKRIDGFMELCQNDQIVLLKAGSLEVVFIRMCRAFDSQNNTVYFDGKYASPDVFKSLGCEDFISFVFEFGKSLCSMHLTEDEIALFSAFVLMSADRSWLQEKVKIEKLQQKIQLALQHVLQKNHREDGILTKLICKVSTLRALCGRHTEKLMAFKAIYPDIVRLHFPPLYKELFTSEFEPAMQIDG
In words: Inverse agonist activity at RORalpha (unknown origin) expressed in human HeLa-derived HG5LN cells transfected with the GAL4 DNA-binding domain fused to the RORalpha ligand-binding domain assessed as inhibition of transcriptional activity after 18 hrs by luminescence-based luciferase reporter gene assay. Type of data set: cell-based.

Data set [3] has as its system TK6. In words: Genotoxicity in human TK6 cells incubated for 3 hrs in presence of aroclor-1254-induced rat S9 fraction followed by 27 hrs recovery period by Giemsa staining dependent optical microscopy based micronucleus test. It is filed as toxicity, cell-based. The note with it: s9, 3 h.
Data set [4] in a line: Solubility of the compound in PG/EtOH96 (3/7) solution incubated for 24 hrs by UV spectrometry. It is filed as physicochemical.

Description for Vitamin D3 receptor: Activity at VDR expressed in human HeLa-derived HDLN6 cells assessed as inhibition of transcriptional activity after 18 hrs by luminescence-based luciferase reporter gene assay

`CCc1ccc(N(CC(C)C)S(=O)(=O)c2ccc(OCC3CCOCC3)c([S@@](C)(=N)=O)c2)cc1`: the Activity result in the data set with Salmonella typhimurium, with TK6 [1] and with TK6 [3] was “Non-Toxic” throughout. This compound had a pKd at Vitamin D3 receptor of less than 5.00. Further, the pIC50 in data set [2] is less than 5.00. The compound also gave a solubility at 24 h in data set [4] of 31 mM (≈ 15.8 mg/mL).
